Legend:
B16-Sb9 KO cells = experiment: RT-PCR gene expression in B16-Sb9 KO cells; type: cell-based, mouse
Experimental: Total RNA was prepared from cells using the Quick-RNA MiniPrep kit (Zymo Research, Irvine, Calif., USA), according to the manufacturer's instructions. cDNA was prepared from total RNA using SuperScript III Reverse Transcriptase (Invitrogen). Following reverse transcription, quantitative PCR was performed using a cycling profile consisting of 95° C. for 2 min (Stage I), 30 cycles of 95° C. for 20 s, 58° C. for 30 s, and 70° C. for 30 s (Stage II), and 65° C. for 5 s (Stage III). Fold changes were determined by subtracting Cq values of the loading control from the Cq values of the gene of interest. The results were normalized to untreated controls.
To evaluate the off-target effects of the compound of Formula (III) to Sb9 proteins, the B16-Sb9 KO melanoma cells were treated with various concentrations of the compound of Formula (III). […] Furthermore, the antitumor effects of the compound of Formula (III) on the Sb9 KO mice bearing B16-Sb9 KO tumors, as compared to control group were not observed (FIG. 5N).

MSC-WT cells = experiment: ECM fiber production by mesenchymal stem cells; type: cell-based, mouse
Experimental: Isolation and harvest of murine MSCs from either C57BL/6-WT mice or Sb9 KO mice were performed according to the protocol as described previously (Zhu et al., 2010).
To investigate the effect of the compound of Formula (III) on the tumor stroma, MSC-WT cells were treated with the compound of Formula (III) for 48 hrs.

LLC1 mouse lung tumors = experiment: LLC1 lung tumor model in C57BL/6 mice; type: in vivo; conditions: 300 μg i.p. bid for 21 days
Excerpt: FIGS. 6P-6Q. […] Data are expressed as means±SEM. *P<0.05 (Student's t-test). Mean survival time (MST) is increased in mice treated with the compound of Formula (III) as compared to Control group (FIG. 6Q).
Furthermore, similar antitumor effects and increased MST using the compound of Formula (III) in two other in vivo tumor models were observed: Renca renal cell carcinoma and LLC1 lung cancer (FIGS. 6M-6Q). Thus, inhibition of Sb9 by the compound of Formula (III) has potent anti-tumor effects in a broad spectrum of tumors, including melanomas as well as breast, lung, and kidney tumors.

[1] = system: B16-WT mouse melanoma tumors; experiment: B16 melanoma tumor model in C57BL/6 mice; type: in vivo
Experimental: Mice were anesthetized with isoflurane, and tumor cell lines (B16, A375, and 4T1) were gently injected subcutaneously in the flanks or mammary glands of mice. One hundred thousand cells (1×10^5 cells) were injected per mouse for most of the experiments. However, twenty-five thousand cells (25×10^3 cells) were injected per mouse for the experiments using the compound of Formula (III). Upon 4 hrs post-implantation, 300 μg of the compound of Formula (III) was administered twice a day intraperitoneally for 14 days. Tumor growth was monitored three times per week by digital caliper (Fisherbrand™ Traceable™ Digital Calipers).
The anti-tumor activity of the compound of Formula (III) in vivo was assessed. […] Treatment with the compound of Formula (III) increased the median survival time (MST) of mice bearing B 16-WT mouse melanoma tumors and receiving treatment with the compound of Formula (III) as compared to mice bearing B16-WT melanoma tumors and not receiving treatment (MST=39 days vs MST=26 days, respectively) (FIG. 51B). Next, the effect of the compound of Formula (III) on tumor immunity was examined.
The efficacy of the compound of Formula (III) was assessed in C57BL/6J mice (FIG. 18). B16 mouse melanoma cells were implanted subcutaneously into the right flanks of C57BL/6J mice, and the mice were randomized into three groups: (1) no treatment (control), (2) treatment with anti-PD1, and (3) treatment with Formula (III). The mice in the anti-PD1 group received 200 μg of anti-PD1 iv every 3 days, and those in the Formula (III) group received 300 μg of Formula (III) twice a day consecutively for 14 days.
A survival study using the compound of Formula (IV) in mice harboring B16 melanoma was performed. Mice implanted with B16 tumors were treated with the compound of Formula (IV) (n=8) and compared to a control group having B16 tumors and not receiving treatment with the compound of Formula (IV) (n=8).

[2] = In vivo toxicity (CBC, serum chemistry, H&E); parameters: species or system mouse; conditions: 300 μg i.p. twice a day for 14 days
Experimental: To further assess the in vivo toxicity of the compound of Formula (III), 300 μg of the compound of Formula (III) was administered twice a day intraperitoneally for 14 days.

[3] = 17 days post-implantation, flow cytometry

O=C(O)c1ccc2ncoc2c1 [Formula (III), 1,3-benzoxazole-6-carboxylic acid]
gene expression of caspase-3/8, P53, and Bcl-2 (B16-Sb9 KO cells): no significant effect | production of fibronectin and collagen I by MSC-WT cells (MSC-WT cells; 48 hrs treatment): reduced the production of fibronectin and collagen I | expression of fibronectin and collagen I by MSC-WT cells co-cultured with B16 cells (MSC-WT cells; co-culture with B16-GFP cells): decreased the expression of fibronectin and collagen I | Mean survival time (MST) vs Control (LLC1 mouse lung tumors): increased | tumor growth vs control (LLC1 mouse lung tumors; C57BL/6-WT mice): significantly slower growth | level of effector IFNγ+ CD4+ cells in TME ([1]; 17 days post-implantation): increased level | level of immunosuppressive IL10+CD4+ and IL10+CD8+ cells in TME ([1]; 17 days post-implantation): decreased level | levels of immunosuppressive Tregs, TAMs, and MDSCs in melanoma vs control [1, 3]: significantly lower | populations of CD44+ CD62L− (effector memory) CD8+, GrB+ CD8+ and IFNγ+ CD8+ in melanoma vs control [1, 3]: significantly higher | median survival time (MST) ([1]; B16-WT tumors, 300 μg i.p. bid for 14 days (FIG. 5B)): 39 days | median survival time (MST) ([1]; C57BL/6J, FIG. 18, Formula (III) 300 μg twice a day 14 days, anti-PD1 200 μg iv every 3 days): 36 days | reduction of size of B16 tumors vs control ([1]; C57BL/6 mice, 300 μg i.p. bid for 14 days): 3.7 fold | CBC: WBC, HGB, and PLT vs control [2]: no significant difference | serum AST, ALT, CRE, and ALB levels vs control [2]: similar | toxicity to liver, kidney, lung, and heart tissues (H&E staining) [2]: no toxicity
